A word on the IC50: it is the midpoint of a concentration-inhibition curve.

Among the data in patent publication US10562891B2, “Quinazolinones as PARP14 inhibitors” (Ribon Therapeutics Inc., priority 2017, dated 2020) are IC50 values, retold here.

SMILES strings stand for the structures. Where a name gives a salt, the structure may show the parent alone. Bounds are passed on as bounds.

catalytic domain of human PARP14, sequence (Q460N5 1611-1801): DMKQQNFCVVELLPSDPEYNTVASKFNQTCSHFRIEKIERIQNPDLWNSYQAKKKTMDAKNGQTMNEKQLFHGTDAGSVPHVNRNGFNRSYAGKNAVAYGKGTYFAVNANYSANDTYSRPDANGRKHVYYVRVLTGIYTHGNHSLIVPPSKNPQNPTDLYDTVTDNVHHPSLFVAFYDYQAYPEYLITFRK

The target in this assay is catalytic domain of human PARP14 (Homo sapiens (Human), UniProt Q460N5). Description: Enzymatic assay for inhibition of PARP14 (DELFIA, auto-modification with biotin-NAD). Type of assay: biochemical. Conditions: auto-modification of PARP14 by biotin-NAD, 50 nM PARP14, 3 μM biotin-NAD. As for the experimental part:
An N-terminal His-TEV fusion tag was used to purify the protein from cell lysates. The His-TEV tag was left on the protein for use in the enzymatic assay.
Enzymatic inhibition of PARP14 was measured using a dissociation-enhanced lanthanide fluorescence immunoassay (DELFIA) monitoring the auto-modification of PARP14 by biotinylated nicotinamide adenine dinucleotide (biotin-NAD). 1 μL of a dose response curve of each test compound was spotted in 384-well nickel-coated white microplates (Thermo) using a Mosquito (TTP Labtech). Reactions were performed in a 50 μL volume by adding 40 μL of PARP14 in assay buffer (20 mM HEPES pH==8, 100 mM NaCl, 0.1% bovine serum albumin, 2 mM DTT and 0.002%0 Tween20), incubating with test compound at 25° C. for 30 min, then adding 10 μL of biotin-NAD (Biolog). The final concentrations of PARP14 and biotin-NAD are 50 nM and 3 μM, respectively. Reactions proceeded at 25° C. for 3 h, then were quenched with 5 μL of 10 mM unmodified nicotinamide adenine dinucleotide (Sigma-Aldrich). The quenched reactions were washed 3 times with 100 μL of TBST wash buffer (50 mM Tris-HCl, 150 mM NaCl and 0.1% Tween20). Next, to the washed and dried plate was added 25 μL of DELFIA Europium-N1 streptavidin (Perkin Elmer) diluted in DELFIA assay buffer (Perkin Elmer). After a 30 min incubation at 25° C., the plate was washed 5 times with TBST wash buffer. Finally, 25 μL of DELFIA enhancement solution was added. After a 5 min incubation the plate was read on an Envision platereader equipped with a LANCE/DELFIA top mirror (Perkin Elmer) using excitation of 340 nm and emission of 615 nm to measure the amount of Europium present in each well, informing on the amount of biotin-NAD that was transferred in the automodification reaction.
[formula] where ex615cmpd is the emission from the compound treated well, ex615min is the emission from the rucaparib treated positive control well and ex615max is the emission from the DMSO treated negative control well.
The % inhibition values were plotted as a function of compound concentration and the following 4-parameter fit was applied to derive the IC50 values:
[formula] where top and bottom are normally allowed to float, but may be fixed at 100 or 0 respectively in a 3-parameter fit. The Hill Coefficient is normally allowed to float but may also be fixed at 1 in a 3-parameter fit. Y is the % inhibition and X is the compound concentration.
`CN1CC[C@@H](SCc2nc3cc(NC4CCCC4)cc(F)c3c(=O)[nH]2)[C@@H](F)C1` (relative stereo) [Example 413]: the IC50 is below 1000 nM. Regarding `O=c1[nH]c(CS[C@@H]2CCNCC2F)nc2cc(OCC3CC3)cc(F)c12` (stereo in doubt) [Example 295, 7-(Cyclopropylmethoxy)-5-fluoro-2-(((cis-3-fluoropiperidin-4-yl)thio)methyl)quinazolin-4(3H)-one hydrochloride], the IC50 is below 1000 nM. In turn, `N#Cc1ccc2c(=O)[nH]c(CSC3CCOCC3)nc2c1` [Example 1, 4-Oxo-2-(((tetrahydro-2H-pyran-4-yl)thio)methyl)-3,4-dihydroquinazoline-7-carbonitrile] yielded an IC50 above 10000 nM. `Cc1cccc2c(=O)[nH]c(CSC3CCOCC3)nc12` [Example 2] yielded an IC50 below 1000 nM. In turn, `Cc1ccc2nc(CSC3CCOCC3)[nH]c(=O)c2c1` [Example 3] had an IC50 of 1000 to 10000 nM. The result for `COc1ccc2nc(CSC3CCOCC3)[nH]c(=O)c2c1` [Example 4] reads above 10000 nM; that for `O=c1[nH]c(CSC2CCOCC2)nc2c(Cl)cccc12` [Example 5], 1000 to 10000 nM; that for `COc1cccc2c(=O)[nH]c(CSC3CCOCC3)nc12` [Example 6], 1000 to 10000 nM. For the compound `Cc1cccc2c(=O)[nH]c(C(C)SC3CCOCC3)nc12` (stereo not shown) [Example 7], the IC50 is above 10000 nM. Compound `Cc1ccc(F)c2c(=O)[nH]c(CSC3CCOCC3)nc12` [Example 8] yielded an IC50 below 1000 nM. As to `Cc1cccc2nc(CSC3CCOCC3)[nH]c(=O)c12` [Example 9], the IC50 fell in the range of 1000 to 10000 nM. The result for `O=c1[nH]c(CSC2CCOCC2)nc2c(Cc3ccccc3)cccc12` [Example 10] reads above 10000 nM; that for `O=c1[nH]c(CSC2CCOCC2)nc2cc(Cc3ccccc3)ccc12` [Example 11], above 10000 nM; that for `Cc1cccc2c(=O)[nH]c(CSCC3CCOCC3)nc12` [Example 12, 8-Methyl-2-((((tetrahydro-2H-pyran-4-yl)methyl)thio)methyl)quinazolin-4(3H)-one], 1000 to 10000 nM. As for `Cc1cccc2c(=O)[nH]c(CSC3CCNCC3)nc12` [Example 13, 8-Methyl-2-((piperidin-4-ylthio)methyl)quinazolin-4(3H)-one Trifluoroacetate], the IC50 is below 1000 nM.

In turn, `Cc1cccc2c(=O)[nH]c(CSC3CCN(C)CC3)nc12` [Example 14, 8-Methyl-2-(((1-methylpiperidin-4-yl)thio)methyl)quinazolin-4(3H)-one] came in with an IC50 of 1000 to 10000 nM. With `Cc1cccc2c(=O)[nH]c(CSC3CCNC3)nc12` (stereo not shown) [Example 15, 8-Methyl-2-((pyrrolidin-3-ylthio)methyl)quinazolin-4(3H)-one trifluoroacetate], the IC50 was 1000 to 10000 nM. In turn, `Cc1cccc2c(=O)[nH]c(CSC3CCN(C)C3)nc12` (stereo not shown) [Example 16, 8-Methyl-2-(((1-methylpyrrolidin-3-yl)thio)methyl)quinazolin-4(3H)-one] yielded an IC50 of 1000 to 10000 nM. In the case of `CC(=O)N1CCC(SCc2nc3c(C)cccc3c(=O)[nH]2)CC1` [Example 17, 2-(((1-Acetylpiperidin-4-yl)thio)methyl)-8-methylquinazolin-4(3H)-one], the IC50 fell in the range of 1000 to 10000 nM. Compound `Cc1cccc2c(=O)[nH]c(CSC3CCN(Cc4ccccn4)CC3)nc12` [Example 18, 8-Methyl-2-(((1-(pyridin-2-ylmethyl)piperidin-4-yl)thio)methyl)quinazolin-4(3H)-one] came in with an IC50 below 1000 nM. `Cc1cccc2c(=O)[nH]c(CS(=O)(=O)C3CCOCC3)nc12` [Example 19, 8-Methyl-2-(((tetrahydro-2H-pyran-4-yl)sulfonyl)methyl)quinazolin-4(3H)-one]: the concentration for half-maximal inhibition (IC50) was above 10000 nM. For the compound `Cc1cccc2c(=O)[nH]c(CSC3CCCNCC3)nc12` (stereo not shown) [Example 20, 2-((Azepan-4-ylthio)methyl)-8-methylquinazolin-4(3H)-one Trifluoroacetate], the IC50 is below 1000 nM.

With `Cc1cccc2c(=O)[nH]c(CSC3CCC(N(C)C)CC3)nc12` (stereo not shown) [Example 21, 2-(((4-(Dimethylamino)cyclohexyl)thio)methyl)-8-methylquinazolin-4(3H)-one], the IC50 is below 1000 nM. For the compound `Cc1cccc2c(=O)[nH]c(CSC3CCC(O)CC3)nc12` (stereo not shown) [Example 22, 2-(((4-Hydroxycyclohexyl)thio)methyl)-8-methylquinazolin-4(3H)-one], the IC50 is below 1000 nM. For `Cc1cccc2c(=O)[nH]c(CS[C@H]3CC[C@H](O)CC3)nc12` [Example 23, 2-((((trans)-4-Hydroxycyclohexyl)thio)methyl)-8-methylquinazolin-4(3H)-one] the value was below 1000 nM; for `Cc1cccc2c(=O)[nH]c(CS[C@H]3CC[C@@H](O)CC3)nc12` [Example 24, 2-((((cis)-4-Hydroxycyclohexyl)thio)methyl)-8-methylquinazolin-4(3H)-one], 1000 to 10000 nM; for `Cc1cccc2c(=O)[nH]c(CSC3CNC3)nc12` [Example 25, 2-((Azetidin-3-ylthio)methyl)-8-methylquinazolin-4(3H)-one Trifluoroacetate], above 10000 nM. `CO[C@H]1CC[C@H](SCc2nc3c(C)cccc3c(=O)[nH]2)CC1` [Example 26, 2-((((trans)-4-Methoxycyclohexyl)thio)methyl)-8-methylquinazolin-4(3H)-one] gave an IC50 of 1000 to 10000 nM. The result for `CO[C@H]1CC[C@@H](SCc2nc3c(C)cccc3c(=O)[nH]2)CC1` [Example 27, 2-((((cis)-4-Methoxycyclohexyl)thio)methyl)-8-methylquinazolin-4(3H)-one] reads 1000 to 10000 nM.

In turn, `N#Cc1cccc2c(=O)[nH]c(CSC3CCOCC3)nc12` [Example 28, 4-Oxo-2-(((tetrahydro-2H-pyran-4-yl)thio)methyl)-3,4-dihydroquinazoline-8-carbonitrile] yielded an IC50 above 10000 nM.

`O=c1[nH]c(CSC2CCOCC2)nc2cc(Oc3ccccc3)ccc12` [Example 29, 7-Phenoxy-2-(((tetrahydro-2H-pyran-4-yl)thio)methyl)quinazolin-4(3H)-one]: the 50% inhibitory concentration (IC50) was in the range of 1000 to 10000 nM. Consider `O=c1[nH]c(CSC2CCOCC2)nc2cc(F)ccc12` [Example 30, 7-Fluoro-2-(((tetrahydro-2H-pyran-4-yl)thio)methyl)quinazolin-4(3H)-one], for which the IC50 was 1000 to 10000 nM. `COc1ccc2c(=O)[nH]c(CSC3CCOCC3)nc2c1` [Example 31, 7-Methoxy-2-(((tetrahydro-2H-pyran-4-yl)thio)methyl)quinazolin-4(3H)-one] came in with an IC50 of 1000 to 10000 nM. `Cc1cccc2c(=O)[nH]c(CSC3CCCN(C)C3)nc12` (stereo not shown) [Example 32, 8-Methyl-2-(((1-methylpiperidin-3-yl)thio)methyl)quinazolin-4(3H)-one] displayed a half-maximal inhibitory concentration (IC50) of 1000 to 10000 nM. As to `Cc1c(F)ccc2c(=O)[nH]c(CSC3CCOCC3)nc12` [Example 33, 7-Fluoro-8-methyl-2-(((tetrahydro-2H-pyran-4-yl)thio)methyl)quinazolin-4(3H)-one], the IC50 was below 1000 nM.

`Cc1ccc(Cl)c2c(=O)[nH]c(CSC3CCOCC3)nc12` [Example 34, 5-Chloro-8-methyl-2-(((tetrahydro-2H-pyran-4-yl)thio)methyl)quinazolin-4(3H)-one]: the IC50 is below 1000 nM. `Cc1ccc(C(F)(F)F)c2c(=O)[nH]c(CSC3CCOCC3)nc12` [Example 35, 8-Methyl-2-(((tetrahydro-2H-pyran-4-yl)thio)methyl)-5-(trifluoromethyl)quinazolin-4(3H)-one] gave an IC50 below 1000 nM.
